Measurements reported in ChEMBL document CHEMBL4476887, “Lysyl oxidase-like 2 inhibitors and uses thereof” (2018).

Target: T1, Lysyl oxidase homolog 2 (Homo sapiens, UniProt Q9Y4K0)
T1 sequence (Q9Y4K0 whole entry): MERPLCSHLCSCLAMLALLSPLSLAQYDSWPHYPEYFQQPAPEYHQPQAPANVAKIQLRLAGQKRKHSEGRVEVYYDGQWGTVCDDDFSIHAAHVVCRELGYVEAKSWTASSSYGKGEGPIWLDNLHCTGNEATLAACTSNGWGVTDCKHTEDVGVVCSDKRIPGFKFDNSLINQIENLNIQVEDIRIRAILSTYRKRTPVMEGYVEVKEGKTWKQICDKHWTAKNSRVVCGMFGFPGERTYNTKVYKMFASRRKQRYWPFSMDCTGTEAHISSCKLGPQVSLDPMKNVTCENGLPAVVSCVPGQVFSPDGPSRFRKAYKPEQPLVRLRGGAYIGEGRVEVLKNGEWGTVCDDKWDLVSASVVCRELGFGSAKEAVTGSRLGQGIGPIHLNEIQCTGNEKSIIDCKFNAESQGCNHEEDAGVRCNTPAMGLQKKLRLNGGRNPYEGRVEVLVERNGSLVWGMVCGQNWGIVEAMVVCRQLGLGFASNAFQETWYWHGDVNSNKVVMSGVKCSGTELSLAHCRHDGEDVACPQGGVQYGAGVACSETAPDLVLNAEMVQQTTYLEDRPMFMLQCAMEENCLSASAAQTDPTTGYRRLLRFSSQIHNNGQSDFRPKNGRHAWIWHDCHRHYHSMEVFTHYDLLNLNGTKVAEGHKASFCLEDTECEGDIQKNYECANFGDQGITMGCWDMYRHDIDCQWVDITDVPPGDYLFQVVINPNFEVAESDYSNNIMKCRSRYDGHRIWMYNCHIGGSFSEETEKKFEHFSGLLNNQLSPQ
Assay: Inhibition of human LOXL2 expressed in CHO cells incubated for 2 hrs followed by 1,5-Diaminopentane addition by Amplex Red fluorescence based assay
Assay type: cell-based

SMILES | IC50 [nM]
NCCc1nc(-c2ccccc2)cs1 | 300 to 1000
NCc1nc2ccccc2s1 | < 300
NCc1cc2ccccc2s1 | 300 to 1000
NCCc1nc2ccccc2s1 | < 300
NCc1nc2ccccc2[nH]1 | < 300
NCc1cc2cc(Br)ccc2o1 | > 1000
NCCc1nc2ccc(F)cc2[nH]1 | > 1000
NCc1cnccn1 | < 300
NCc1cc2ccc(-c3cnc4ccccc4c3)cc2c(=O)[nH]1 | < 300
NCCc1nc2cccc(Cl)c2o1 | < 300
NCCc1cc2ccccc2o1 | > 1000
NCc1cc(Oc2cccc(C(=O)Nc3ccccc3)c2)n2nccc2n1 | 300 to 1000
NCCc1nc2cc(Cl)ccc2s1 | < 300
NCc1cc2ccc(-c3cncc(C(=O)Nc4ccccc4)c3)cc2s1 | < 300
NCCc1cc2ccccc2[nH]1 | > 1000
NCCc1cc2ccccc2s1 | > 1000
Cc1cc(Br)cc2cc(CN)oc12 | < 300
CC(C)(C)c1ccc2sc(CN)cc2c1 | < 300
NCc1cc2ccc(Br)cc2c(=O)[nH]1 | < 300
NCc1cc2cc(-c3cccnc3)ccc2[nH]1 | < 300
NCc1nc2cc(Cl)ccc2[nH]1 | < 300
COc1ncccc1-c1ccc2[nH]c(CN)cc2c1 | 300 to 1000
NCCc1nc2cc(F)ccc2s1 | < 300
NCCc1nc2cc(Cl)ccc2o1 | < 300

SMILES | IC50 [nM]
NCc1cc2ccc(-c3ccc(C(=O)Nc4ccccc4)nc3)cc2s1 | < 300
COc1ccc2[nH]c(CN)cc2c1 | 300 to 1000
Cn1cc(-c2ccc3[nH]c(CN)cc3c2)cn1 | 300 to 1000
Cc1c(CN)oc2ccc(F)cc12 | > 1000
NCCc1nc2cc(Cl)ccc2[nH]1 | > 1000
NCc1ccnc(Oc2cccc(C(=O)Nc3ccccc3)c2)n1 | 300 to 1000
NCc1cc2ccncc2[nH]1 | < 300
NCc1cnnc(Oc2cccc(C(=O)Nc3ccccc3)c2)c1 | < 300
NCc1cc2c(cn1)ncn2-c1cccc(C(=O)Nc2ccccc2)c1 | < 300
NCCc1nn2cnnc2s1 | > 1000
NCc1cc2cc(C3CC3)ccc2s1 | < 300
NCc1cc2cc(-c3ccc(OCc4ccccc4)nc3)ccc2[nH]1 | 300 to 1000
NCc1cc2cc(-c3cncc(O)c3)ccc2[nH]1 | 300 to 1000
NCc1nc2cc3ccccc3cc2[nH]1 | < 300
NCc1cc2ccccc2c(=O)[nH]1 | 300 to 1000
NCc1cc2ccc(C#Cc3ccccc3)cc2c(=O)[nH]1 | < 300
NCc1cc2ccc(Br)cc2s1 | < 300
Cn1c(CN)cc2ccccc21 | > 1000
NCC1=CC(=O)c2ccccc2C1=O | < 300
NCc1nc2cc(Cl)ccc2s1 | 300 to 1000
NCc1cc(=O)[nH]c2ccccc12 | > 1000
NCc1ccnnc1 | 300 to 1000
NCCc1nc2ccccc2o1 | 300 to 1000
NCc1cc(Nc2cccc(C(=O)Nc3ccccc3)c2)n2ccnc2n1 | < 300

SMILES | IC50 [nM]
NCc1nc2ccccc2o1 | > 1000
NCc1cc2ccc(-c3cncc(C(=O)NCc4ccccc4)c3)cc2s1 | < 300
NCc1cc2cc(-c3cccnc3)ccc2s1 | < 300
NCc1cc2cc(F)ccc2[nH]1 | > 1000
NCc1cc2c(cn1)ncn2Cc1cccc(C(=O)Nc2ccccc2)c1 | > 1000
NCc1cccnn1 | < 300
Cc1c(F)ccc2cc(CN)[nH]c12 | > 1000
NCc1ccc2[nH]cnc2c1 | > 1000
NCc1sc2ccccc2c1Cl | 300 to 1000
NCc1cc2ncccc2[nH]1 | < 300
NCc1cc(=O)c2cc(Br)ccc2s1 | < 300
NCc1cc2cc(F)ccc2s1 | < 300
NCc1nc2cc(Br)cnc2[nH]1 | < 300
C#Cc1ccc2cc(CN)[nH]c(=O)c2c1 | < 300
NCc1cc(O)n2nccc2n1 | 300 to 1000
NCc1cc2cc(-c3ccc(Oc4ccccc4)nc3)ccc2[nH]1 | < 300
COc1ccc(-c2ccc3[nH]c(CN)cc3c2)cn1 | 300 to 1000
NCc1cc2ccc(-n3cc(Br)cn3)cc2c(=O)[nH]1 | < 300
NCc1ccc2ncccc2c1 | > 1000
NCc1cc2cc(I)ccc2[nH]1 | < 300
NCc1cc2cc(-c3cncc4ccccc34)ccc2[nH]1 | < 300
NCCc1nc(-c2ccncc2)cs1 | 300 to 1000
Cn1cnc2ccc(-c3ccc4[nH]c(CN)cc4c3)cc21 | < 300
NCc1cc2ccc(-c3cccnc3)cc2s1 | < 300

SMILES | IC50 [nM]
NCc1cc2cc(-c3ccc4nccn4c3)ccc2[nH]1 | < 300
COC(=O)c1cncc(-c2ccc3[nH]c(CN)cc3c2)c1 | < 300
NCc1cc2cc(Cl)ccc2[nH]1 | 300 to 1000
Cc1ccc2[nH]c(CN)cc2c1 | 300 to 1000
NCc1cc2ccccc2o1 | 300 to 1000
NCc1ccc2[nH]ccc2n1 | > 1000
COc1ccc2cc(CN)[nH]c(=O)c2c1 | < 300
NCc1cc2ccc(-c3ccc(F)cc3)cc2c(=O)[nH]1 | < 300
NCc1cc2cc(Br)ccc2s1 | < 300
NCCc1nc2ccccc2[nH]1 | > 1000
NCc1cc2cc(-c3ccc(F)cc3)ccc2[nH]1 | < 300
NCc1cc2cc(-c3cnc4ccccc4c3)ccc2[nH]1 | < 300
CC(C)(C)c1ccc2oc(CN)nc2c1 | < 300
NCc1cc2cc(Br)ccc2[nH]1 | < 300
NCc1cc(Oc2cccc(C(=O)Nc3ccccc3)c2)n2ccnc2n1 | < 300
NCc1cc2occc2s1 | > 1000
NCc1nc2ncccc2[nH]1 | < 300
NCc1cc2ccc(-c3ccccc3)cc2c(=O)[nH]1 | < 300
CC(CN)c1nc2ccccc2s1 (racemic) | 300 to 1000
NCC(O)c1cc2ccccc2s1 (racemic) | > 1000
NCc1cc2ccccc2[nH]1 [2-INDOLYLMETHANAMINE] | 300 to 1000
